Tests used:
[1] = Acute toxicity, single oral administration to mice (LD50); conditions: mouse, in vivo
Description: Moreover, the Table contains data for the acute toxicity (LD50 in mg/kg in the case of single oral administration to mice).

rats = test: Passive avoidance in Skinner box: reversal of scopolamine-induced blocking of short-time memory; type: in vivo, rat; conditions: scopolamine 0.3 mg/kg i.p. and distilled water p.o.
Description: The test apparatus is a "Skinner box" with an electrifiable grid floor (30×40 cm) and a grey plastic platform (15×15×0.8 cm) in the front right corner. Untrained male rats (100-120 g) are placed individually on the platform. As soon as they climb down on to the grid floor they receive a mild electric foot-shock (0.8 mA). The normal reaction of untrained rats is to climb back on to the platform. The foot-shock procedure must be repeated three to five times for each animal, after which the rats have acquired a "passive avoidance response", that is, they no longer attempt to descend from the platform to the grid floor.
Immediately thereafter three groups, each comprising 30 animals, are set up. The first group receives an injection (i.p.) of 0.3 mg/kg of scopolamine as well as distilled water (2 ml/kg p.o.). The second group receives an injection (i.p.) of 0.3 mg/kg of scopolamine and an oral dosage of the test substance. The third group receives only distilled water (p.o.).
Two hours later, each rat is placed once on the platform in the "Skinner box". […] The statistical significance of the difference between the results obtained in the first and in the second groups is determined by means of the Chi-Square test.
70-75% of the animals treated only with distilled water (p.o.) still remember 2-4 hours after learning the "passive avoidance response" that they should remain on the platform. […]

SMILES | LD50 [1] | animals with retrograde effect on the short-time memory (rats) | duration of retrograde effect on the short-time memory (rats)
CC(=O)N1CCCC(=O)c2ccc(F)cc2CCC1=O [I H H F H COCH3, 4-acetyl-11-fluoro-1,2,4,5,6,7-hexahydro-4-benzazecine-3,8-dione] | > 5000 mg/kg | – | –
CC(=O)N1CCCC(=O)c2ccc(Cl)cc2CCC1=O [I H H Cl H COCH3, 4-acetyl-11-chloro-1,2,4,5,6,7-hexahydro-4-benzazecine-3,8-dione] | > 5000 mg/kg | – | –
CC(=O)N1CCCC2=C1CCc1cc(Cl)ccc12 [II H H Cl H COCH3, 4-acetyl-8-chloro-1,2,3,4,5,6-hexahydrobenzo[f]quinoline] | 2500 to 5000 mg/kg | – | –
CN1[C@@H]2C[C@@H](OC(=O)[C@H](CO)c3ccccc3)C[C@H]1[C@@H]1O[C@@H]12 [scopolamine] | – | 85-92% | 3 to 4 h
CC(=O)N1CCCC(=O)c2c(Cl)cccc2CCC1=O [I Cl H H H COCH3, 4-acetyl-9-chloro-1,2,4,5,6,7-hexahydro-4-benzazecine-3,8-dione] | > 5000 mg/kg | – | –
CC(=O)N1CCCC(=O)c2c(Cl)cc(Cl)cc2CCC1=O [I Cl H Cl H COCH3, 4-acetyl-9,11-dichloro-1,2,4,5,6,7-hexahydro-4-benzazecine-3,8-dione] | > 5000 mg/kg | – | –

Source: patent publication US4957911A, “Benzazecine derivatives for cognitive and memory functions” (Hoffmann-La Roche Inc., priority 1986, dated 1990)
